Consider 1 compound from PMC8746798, “Evaluation of 2-Thioxoimadazolidin-4-one Derivatives as Potent Anti-Cancer Agents through Apoptosis Induction and Antioxidant Activation: In Vitro and In Vivo Approaches” (Molecules, 2021).

Assay [1] relates to P53, PUMA, Caspase 3, 8, 9, Bcl-2, PI3K, AKT genes in HepG2 cells. Kind of assay: Gene expression (RT-PCR) of apoptosis-related genes. It counts as cell-based, human. The conditions noted are these: HepG2, IC50 concentration, 48 h, control = 1. The method, then:
The target genes of P53, PUMA, Caspases 3, 8, and 9, Bcl-2, PI3K, and AKT were chosen according to the interactive functional association network of the tested protein set using String bioinformatics database for analysis as shown in Supplementary Figure S1. HepG2 cells were treated for 48 h at 37 °C with the IC50 value of the compound 4 and followed by real-time PCR analysis for control and treated cells of the following genes, P53, PUMA, BCL2, CASP3, CASP8, CASP9, PI3k, and AKT, using the specific primers mentioned in Supplementary Table S3 compared to the control cells. Relative gene expression was calculated utilizing the ΔΔCT equation with normalization to the housekeeping beta-actin gene. Results were shown as a fold change in the mentioned gene expression in the treated versus control cells.
HepG2 cells were treated for 48 h at 37 °C with the IC50 value of the compound 4 and were collected for real-time PCR analysis with the perfect primer pairs (Supplementary, Table 1) of the following eight genes (P53, PUMA, BCL2, CASP3, CASP8, CASP9, PI3k and AKT) compared to the control cells, and for analysis first total RNA was extracted using RNeasy Mini Kit (Qiagen) following the manufacturer protocol of the kits than RNA was assessed for both the quality and quantity of RNA using NanoDrop ND-1000 spec-trophotometer at the absorbance ratio 260/280 nm [NanoDrop Tech., Inc. DE, USA]. Also, Whole RNA quality was examined by 1% agarose gel electrophoresis and afterward cDNA was obtained from one μg RNA using I-Script cDNA synthesis kit (BioRad). qRT-PCR were executed utilizing 10 ng of cDNA and Applied Biosystems Sybr Green master […]
conditions were 5 min [95 ◦C], followed by 45 cycles for 15 s [95 ◦C], for 60 s [58, 60, 62 ◦C] and for 1 min [72 ◦C] using applied Biosystems Step-One qRT-PCR (USA). Relative genes expression was finally calculated utilizing the ΔΔCT equation with normalization to that of the housekeeping beta-actin gene. Results were shown as fold change in gene expres-sion in the treated cells versus that of the control. […]

Assay [2] has as its system HepG2 cells. Kind of assay: Annexin V-FITC/PI apoptosis/necrosis flow cytometry. It is filed as cell-based, human. An excerpt:
Apoptotic cells were quantified using double staining with annexin V and PI on flow cytometry. […] The detailed methodology of flow cytometric analysis (annexin V/PI differential apoptosis/necrosis, DNA content–flow cytometry aided cell cycle) is provided in the Supplementary Materials.
Supplementary materials for detailed methodology
Evaluation of 2-thioxoimadazolidin-4-one Derivatives as Potent
Anti-cancer Agents Through Apoptosis Induction and Antioxi-dant Activation: In vitro and In vivo Approaches
Mohamed S. Nafie 1,*, Ahmed I. Khodair 2,*, Hebat Allah Y. Hassan 3, Noha M. Abd El-Fadeal 4, Hanin A. Bogari 5 , Sameh S. Elhady 6 and Safwat A. Ahmed 3,7,* […]
Apoptosis and necrosis cell populations are determined using Annexin V-FITC apop-tosis detection kit (Abcam Inc., Cambridge Science Park, Cambridge, UK) coupled with 2 fluorescent channels flowcytometry. […]
Then, cells are incubated in dark with 0.5 ml of Annexin V-FITC/PI solution for 30 min in dark at room temperature according to manufacturer protocol. After staining, cells are injected via ACEA Novocyte™ flowcytometer (ACEA Biosciences Inc., San Diego, CA, USA) and analyzed for FITC and PI fluorescent signals using FL1 and FL2 signal detector, respectively (λex/em 488/530 nm for FITC and λex/em 535/617 nm for PI). […]
On the technique in general: In flow cytometry, cells or beads pass a laser one at a time.

Each structure is given as a SMILES string.

`O=C1NC(=S)N(c2ccc(O)cc2)/C1=C/c1cccs1` [Compound 4, (E)-1-(4-Hydroxyphenyl)-5-(thiophen-2-ylmethylene)-2-thioxoimidazolidin-4-one]: in assay [1] (reduced), the “AKT gene expression, fold change” value was 0.38 fold; the “BCL-2 gene expression, fold change” value worked out at 0.25 fold; the “PI3K gene expression, fold change” value was found to be 0.497 fold. In assay [1] (upregulation), the “Caspase 3 gene expression, fold change” value amounted to 10.71 fold; the “Caspase 8 gene expression, fold change” value came to 1.98 fold; the “Caspase 9 gene expression, fold change” value is reported as 7.14 fold; the “P53 gene expression, fold change” value was found to be 7.61 fold. In assay [1] (upregulation), the “PUMA gene expression, fold change” value came to 2.31 fold. In addition, in assay [2] (HepG2, IC50 = 0.017 μM, 48 h, control 1.05%), the “necrotic cells (Q1, AV−/PI+)” value turned out to be 6.08%. The “apoptosis induction versus control” value in assay [2] (HepG2, 11.42% compared to 0.59% in control) amounted to 19.35 fold.
